Test results reported in patent publication US20250188088A1, “COMPOUND AND USE THEREOF” (ONQUALITY PHARMACEUTICALS CHINA LTD., priority 2022, published 2025).
Values after ≈ are worked out from the molar mass of the structure shown. Like-named read-outs stand apart in the source and are kept apart here.

How the values were obtained:
[1] = Plasma stability, human plasma; assay type: in vitro ADME, Humans; details: 37° C.
Method: (§1) In addition, the plasma stability of these compounds was determined. Briefly, the determination method comprises the following steps: • 1) Thaw the frozen mixed plasma in a 37° C. water bath before testing, and then centrifuge at 4000 rpm for 5 min to remove blood clots; • 2) Add 98 μL blank plasma into each well of the 96-well reaction plate; • 3) In addition to the blank samples, add 2 μL of 100 μM working solution of test compound into each well; • 3) Incubate the reaction plate at 37° C. and start timing. Incubation times were 0, 10, 30, 60 and 120 minutes, respectively, with two replicate wells at each time point; • 4) Terminate the incubation at the corresponding time point, and add 400 μL of acetonitrile solution containing 200 ng/mL tolbutamide and 200 ng/mL labetalol to precipitate proteins; • 5) Shake each plate for 20 minutes, then centrifuge at 4000 rpm for 20 minutes, transfer 50 μL of supernatant to another 96-well plate, and dilute each sample with 100 μL of pure water; • 6) Analyze the sample by LC-MS/MS.
The experiment results are as follows, and it can be seen from the test results that the selected compounds are easily metabolized to the target compound in human plasma.

[2] = Log D measurement (n-octanol/PBS shake, LC-MS/MS); assay type: physicochemical; details: pH 7.4, read-out: LogD7.4 (Oct/buff)
Method: Two replicates of test compounds (DMSO stock solution 10 mM, 2 μL/well) and QCs (DMSO 10 mM, 2 μL/well) were transferred from the storage tube to a 96-well cluster tube. Add buffer-saturated n-octanol ([…]) and n-octanol-saturated PBS (149 μL/well) to each well; vortex mix the cluster tube for 1 minute, mix by shaking on a plate shaker at 880 rpm for one hour, and then centrifuge at 4000 rpm for 10 minutes. Remove the cover pad, accurately measure a certain amount of n-octanol layer samples (4 μL/well) into a 96-well plate containing n-octanol internal standard diluent (796 μL/well); accurately measure a certain amount of buffer salt layer samples (30 μL/well) into a 96-well plate containing buffer internal standard diluent (570 μL/well); the dilution factor of the sample can be adjusted according to different properties of the sample. Samples were analyzed using a triple quadrupole mass spectrometer. The processed sample solution was analyzed by the fast isocratic elution and small column retention method, the concentration correction was carried out by dilution factor and internal standard, and the ratio of the corrected peak area was used to calculate the final result (Log D/Log P value).

[3] = Plasma stability, mini pig plasma; assay type: in vitro ADME, Mini Pigs; details: 37° C.
Method: as §1

[4] = Thermodynamic solubility assay (PBS pH 6.5; isopropyl myristate); assay type: physicochemical; details: thermodynamic from solid
Method: Thermodynamic Solubility Assay
Weigh not less than 2 mg of the sample powder into a Whatman Mini-UniPrep vial. If it is required to test the thermodynamic solubility of samples in multiple buffers, a separate vial is needed for each test; add 450 μL of buffer to each Whatman Mini-UniPrep vial, respectively; after that, install the piston cap of Whatman Mini-UniPrep and press it above the liquid level, so that the filter is in contact with the buffer during shaking; shake the solubility sample by vortexing for 1 minute.
Inject 3 UV standard solutions from low to high concentrations into the HPLC, then inject the diluent and supernatant of the test compound, with two replicates of test sample; and integrate the UV peaks. Simulate a standard curve and calculate the thermodynamic solubility of the sample.

[5] = test system: rash caused by small molecule EGFR inhibitors; assay: Prevention of rash caused by small molecule EGFR inhibitors, topical ointment, rat model; assay type: in vivo, SD rats
Summary of the method: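 Female SD rats (~200 g, dorsal hair shaved, 10/group) dosed daily by gavage with small-molecule EGFR inhibitors; compound ointment or blank matrix applied once daily to ~3 cm×3 cm of back, left 4 h, then wiped off. Repeated until obvious rash in controls; control rate = % of treated rats with milder rash than controls.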

[6] = test system: skin contact delayed-type hypersensitivity; assay: Skin contact delayed-type hypersensitivity (DNFB) response test, ear swelling, topical ointment; assay type: in vivo; details: topical to ears, DNFB DTH, Balb/c mice, compared to blank ointment
Source text: Therapeutic Effect of Topical Administration of Compounds of the Present Application in Skin Contact Delayed-Type Hypersensitivity Response Test in Mice Delayed-type hypersensitivity (DTH) response in mouse skin is considered to be an effective model for clinical contact dermatitis and other T cell-mediated cutaneous immune diseases, such as atopic dermatitis and psoriasis. The DTH in mice shares the common features with these cutaneous immune diseases, including immunoinfiltration with an increase of inflammatory cytokines and hyperproliferation of keratinocytes. Balb/c mice were sensitized by topical administration of the antigen 2,4-dinitrofluorobenzene (DNFB) to the shaved back of mice on Days 0 and 1. On Day 5, the thickness of the ears was measured using an engineering micrometer. The measurement result was recorded and used as a baseline. The animals were then challenged with a total of 20 μL of DNFB (10 μL for the internal pinna and 10 μL for the external pinna) topically dosed to both ears at a concentration of 0.2%. The ears were measured again 24-72 hours after challenge. The compound ointment of the present application was applied topically to the ears of the animals throughout the allergic and challenge periods (Days −1˜7) or before or throughout the challenge period (generally Days 4˜7). The therapeutic effect was expressed by a reduction in ear swelling compared to that of the blank ointment. The compound causing a reduction of 20% or more was considered effective. Table 5 lists the skin contact delayed-type hypersensitivity experiment results in mice treated with the compound of the present application.

- half-life at 2 µM [1]: 1.9 min
- % Retained ([1]; 0 min): 100.0%
- % Retained ([1]; 10 min): 2.6%
- % Retained ([1]; 30 min): 0.0%
- % Retained ([1]; 60 min): 0.0%
- % Retained ([1]; 120 min): 0.0%
- logD [2]: 0.23
- half-life at 2 µM [3]: 9.1 min
- % Retained ([3]; 0 min): 100.0%
- % Retained ([3]; 10 min): 57.3%
- % Retained ([3]; 30 min): 13.5%
- % Retained ([3]; 60 min): 1.3%
- % Retained ([3]; 120 min): 0.0%
- solubility thermodynamic at 24 h ([4]; aqueous buffer, PBS buffer pH 6.5, about 25° C., read-out: Thermodynamic Solubility pH = 6.5): > 4840 µg/mL
- solubility thermodynamic at 24 h ([4]; oil or lipid, isopropyl myristate as vehicle, about 25° C., read-out: Thermodynamic Solubility in Isopropyl Myristate): 54.7 µg/mL (≈ 103 µM)
Compound: COCCOCC(=O)OCCN(C)C(=O)n1ccc2c(N(C)[C@H]3CN(C(=O)CC#N)CC[C@H]3C)ncnc21 [Compound A18]
- Control Rate ([5]; BPI-7711 60 mg/kg once a day, ointment 3.0 wt% once a day, 14 days): 70%
- Control Rate ([5]; EAI045 80 mg/kg once a day, ointment 0.3 wt% once a day, 11 days): 30%
- Control Rate ([5]; EAI045 80 mg/kg once a day, ointment 3.0 wt% once a day, 11 days): 70%
- Control Rate ([5]; EAI045 80 mg/kg once a day, ointment 5.0 wt% once a day, 11 days): 90%
- Control Rate ([5]; Zorifertinib 60 mg/kg once a day, ointment 3.0 wt% once a day, 12 days): 60%
- Reduction Rate of Ear Swelling ([6]; ointment 0.1 wt%): 23%
- Reduction Rate of Ear Swelling ([6]; ointment 1.0 wt%): 29%
- Reduction Rate of Ear Swelling ([6]; ointment 5.0 wt%): 37%
- Reduction Rate of Ear Swelling ([6]; ointment 10.0 wt%): 45%
